Data: patent US9655965B2, “Radiosensitizer compounds for use in combination with radiation” (priority 2013, dated 2017)

System: cisplatin-resistant human lung cancer (HTB-161) cells
Experiment: In vitro radiosensitizing effect, 18-day clonogenic assay
Type: cell-based
Conditions: HTB-161, 12-hr treatment, 0-10 Gy 225 keV X-ray
Description: Dibromo-diamino-benzene (Dibromo-phenylenediamine, Compound B) was obtained from TCI—America. Diiodo-diaminobenzene (Compound C) were synthesized, purified and crystallized in our laboratory, and the structures and purity were examined by NMR and mass spectrometry. MEM and fetal bovine serum (FBS), penicillin G and streptomycin were obtained from Hyclone Laboratories (UT, USA). Stock solution of cisplatin was freshly prepared in ultrapure water or saline, and stock solutions of Compounds A, B, C, D were prepared in pure ethanol, where the final concentration of ethanol was ≦1% when treated to cells.
A human skin diploid fibroblast (GM05757 cell line) was obtained from the Coriell Cell Repository directly, while the human cervical cancer cell line (HeLa, ATCC#: CCL-2; or ME-180), human ovarian cancer cell line (NIH:OVCAR-3, ATCC#: HTB-161) and human lung cancer cell line (A549, ATCC#: CCL-185™), together with RPMI 1640, F-12K, McCoy's 5 A and L-15 culture media, were obtained from the American Type Culture Collection (ATCC) directly. Fetal bovine serum (FBS) was obtained from Hyclone Laboratories (UT, USA). The GM05757 normal cells and HeLa cells were cultivated with MEM (Hyclone) supplemented with 10% FBS, 100 units/mL penicillin G and 100 μg/mL streptomycin (Hyclone). […]

Nc1cc(Br)c(Br)cc1N [Compound B, 4,5-dibromo-1,2-phenylenediamine]
enhancement of radiosensitivity of cisplatin-resistant cancer cells to X-ray: significant enhancement in the radiosensitivity
